# Assay results from US10174096B2, “Feline bitter taste receptors and methods” (Applied Food Biotechnology, Inc., priority 2013, dated 2019).
# How the values were obtained:
# Assay type in all cases: cell-based, feline
# fTAS2R38 [1] = test: Fluo-4AM calcium assay, cells transiently expressing fTAS2R38
# Description: Cell lines that transiently express a desired TAS2R disclosed herein were generated by transfecting the appropriate expression vector, e.g., pcDNA3.1D-FLAGV5His-TAS2R38, constructed as described above in Ex. 2A into cells of a eukaryotic cell line (Life Technologies, Cat# R700-07).
# (§1) On day 0, 60,000 cells per well were plated on poly lysine coated, black 96 well plates with clear bottoms (Costar). The following day the cells were transfected with 150 ng TAS2R38 expression vector, e.g., pcDNA3.1D-FLAGV5His (Invitrogen) along with 45 ng of Ga16 chimera containing the last 44 amino acids of rat gustducin (Gα16gust44) with 0.5 ul Lipofectamine 2000 (Invitrogen) per well. Cells were then incubated 22-44 hours at 37° C. 5% CO2.
# The expression of fTAS2R38 was evaluated by testing for the presence of a functional response to a known hTAS2R38 ligand (e.g., PTC), determined via automated calcium imaging using a Fluo-4AM (Life Technologies Corporation) Calcium Assay. Fluo-4AM is a fluorescent indicator of intracellular calcium dynamics (change in concentration) and allows monitoring changes in the calcium concentration, particularly an increase in response to receptor activation occurring after agonist exposure.
# (§2) Testing for a functional response of fTAS2R38 to the known hTAS2R38 ligands, PTC and PROP, and of fTAS2R43 to the known hTAS2R43 ligands, aloin, denatonium and saccharine), was determined via automated calcium imaging using the Fluo-4AM (Life Technologies Corporation) Calcium Assay.
# fTAS2R38 [2] = test: Fluo-4AM calcium assay, stable G[alpha]16-gustducin 44/TAS2R38 cell line
# Text: Fluo-4AM is a fluorescent indicator of intracellular calcium dynamics (change in concentration) and allows monitoring changes in the calcium concentration, particularly an increase in response to receptor activation occurring after agonist exposure.
# fTAS2R43 = test: Fluo-4AM calcium assay, cells transiently expressing fTAS2R43
# Description: as §1
# Generation of cell lines transiently expressing the other fTAS2Rs disclosed herein was analogous.
# as §2
compound,measurement,setting,value
"CCCc1cc(=O)[nH]c(=S)[nH]1 [PROP, 6-n-propylthiouracil]",stimulation of fTAS2R38,"fTAS2R38 [1]; 30 μM PROP, transiently transfected cells",not stimulated
same,stimulation of stable fTAS2R38 cell line,fTAS2R38 [2]; 30 μm PROP,not stimulated
"NC(=S)Nc1ccccc1 [PTC, phenylthiocarbamide]",activation over baseline,"fTAS2R38 [1]; 100 μM PTC, transiently transfected cells",81%
same,stimulation over baseline,fTAS2R38 [2]; 100 μM PTC,90%
O=C1c2c(O)cccc2C([C@@H]2O[C@H](CO)[C@@H](O)[C@H](O)[C@H]2O)c2cc(CO)cc(O)c21 (stereo partly shown) [aloin],activation over baseline,"fTAS2R43; 300 μM aloin, transiently transfected cells",45%
CC[N+](CC)(CC(=O)Nc1c(C)cccc1C)Cc1ccccc1 [denatonium],activation over baseline,"fTAS2R43; 1 mM denatonium, transiently transfected cells",17%
"CCCN(CCC)S(=O)(=O)c1ccc(C(=O)O)cc1 [probenecid, p-(dipropylsulfamoyl)benzoic acid]",inhibition of the response to PTC,fTAS2R38 [1]; 1 mM probenecid,inhibited
same,inhibition of the response to aloin,fTAS2R43; 1 mM probenecid,inhibited
same,inhibition of the response to denatonium,fTAS2R43; 1 mM probenecid,inhibited
O=C1NS(=O)(=O)c2ccccc21 [saccharin],stimulation of fTAS2R43,"fTAS2R43; 6.7 mM saccharin, transiently transfected cells",not stimulated
